How the values were obtained:
[1] = target: RAC-alpha serine/threonine-protein kinase (Homo sapiens, UniProt P31749); assay: Inhibition of full length human AKT1 expressed in Sf9 cells assessed as reduction in substrate phosphorylation using biotin-ahx-ARKRERAYSFGHHA-amide substrate and [gamma-33P]ATP incubated for 40 mins by top count microplate scintillation counting method
[2] = target: RAC-gamma serine/threonine-protein kinase (Homo sapiens, UniProt Q9Y243); assay: Inhibition of full length human AKT3 expressed in Sf9 cells assessed as reduction in substrate phosphorylation using biotin-ahx-ARKRERAYSFGHHA-amide substrate and [gamma-33P]ATP incubated for 40 mins by top count microplate scintillation counting method
Chain of RAC-gamma serine/threonine-protein kinase (Q9Y243 whole entry): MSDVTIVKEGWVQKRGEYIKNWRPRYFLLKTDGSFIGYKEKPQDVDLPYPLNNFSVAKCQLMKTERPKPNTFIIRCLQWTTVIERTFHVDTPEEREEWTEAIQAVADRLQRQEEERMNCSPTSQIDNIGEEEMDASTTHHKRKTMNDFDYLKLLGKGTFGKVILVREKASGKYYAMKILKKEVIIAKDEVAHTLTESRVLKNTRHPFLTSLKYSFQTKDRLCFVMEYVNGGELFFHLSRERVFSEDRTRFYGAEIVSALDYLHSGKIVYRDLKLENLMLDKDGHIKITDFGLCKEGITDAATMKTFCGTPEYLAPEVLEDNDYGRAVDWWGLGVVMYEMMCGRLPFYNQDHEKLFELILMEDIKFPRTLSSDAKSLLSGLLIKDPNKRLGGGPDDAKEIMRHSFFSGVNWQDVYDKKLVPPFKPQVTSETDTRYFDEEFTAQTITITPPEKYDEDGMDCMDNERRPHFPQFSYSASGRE

Chain of RAC-alpha serine/threonine-protein kinase (P31749 whole entry): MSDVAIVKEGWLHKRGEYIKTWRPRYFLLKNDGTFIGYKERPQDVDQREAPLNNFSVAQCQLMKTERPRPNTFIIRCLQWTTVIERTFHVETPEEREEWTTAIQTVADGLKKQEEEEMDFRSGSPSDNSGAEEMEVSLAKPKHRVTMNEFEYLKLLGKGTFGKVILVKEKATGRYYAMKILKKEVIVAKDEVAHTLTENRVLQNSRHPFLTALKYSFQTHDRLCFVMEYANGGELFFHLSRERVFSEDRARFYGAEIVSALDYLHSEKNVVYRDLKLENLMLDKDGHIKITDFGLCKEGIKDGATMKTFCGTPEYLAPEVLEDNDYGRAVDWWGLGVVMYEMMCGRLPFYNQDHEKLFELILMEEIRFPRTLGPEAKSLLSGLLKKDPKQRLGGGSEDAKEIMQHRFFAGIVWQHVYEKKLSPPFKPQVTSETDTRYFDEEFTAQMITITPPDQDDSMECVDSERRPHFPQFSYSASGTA

Compound | IC50 [1] [nM] | IC50 [2] [nM]
Cn1ncc(Br)c1-c1cc(C(=O)N[C@H](CN)Cc2ccccc2C(F)(F)F)sc1Cl | ≤ 2.51 | –
Cn1ncc(Cl)c1-c1cc(C(=O)N[C@H](CN)Cc2ccccc2C(F)(F)F)sc1Cl | ≤ 2.51 | –
CCn1ncc(Cl)c1-c1cc(C(=O)N[C@H](CN)Cc2ccc(F)c(F)c2)oc1Cl | ≤ 2.51 | –
Cn1ncc(Cl)c1-c1cc(C(=O)N[C@H](CN)Cc2ccccc2C(F)(F)F)oc1Cl | ≤ 2.51 | –
Cn1ncc(Br)c1-c1cc(C(=O)N[C@H](CN)Cc2ccc(F)cc2)sc1Cl | ≤ 2.51 | –
CCc1sc(C(=O)N[C@H](CN)Cc2cccc(F)c2)cc1-c1c(Cl)cnn1C | ≤ 2.51 | –
Cn1ncc(Br)c1-c1cc(C(=O)N[C@H](CN)Cc2cccc(C(F)(F)F)c2)sc1Cl | ≤ 2.51 | –
Cn1ncc(Br)c1-c1cc(C(=O)N[C@H](CN)Cc2cccc(F)c2)sc1Cl | ≤ 2.51 | –
Cn1nccc1-c1cc(C(=O)N[C@H](CN)Cc2ccc(F)c(F)c2)oc1Cl | ≤ 2.51 | –
CCn1ncc(Cl)c1-c1cc(C(=O)N[C@H](CN)Cc2ccc(F)cc2)sc1Cl | ≤ 2.51 | –
Cc1cnn(C)c1-c1cc(C(=O)N[C@H](CN)Cc2cccc(F)c2)sc1Cl | ≤ 2.51 | –
Cn1nccc1-c1cc(C(=O)N[C@H](CN)Cc2cccc(F)c2)sc1Cl | ≤ 2.51 | –
Cc1cnn(C)c1-c1cc(C(=O)N[C@H](CN)Cc2ccccc2C(F)(F)F)sc1Cl | ≤ 2.51 | –
Cn1ncc(Cl)c1-c1cc(C(=O)N[C@H](CN)Cc2ccc(F)c(F)c2)sc1Cl | 1.58 to 2.51 | 3.16 to 25.1
COc1sc(C(=O)N[C@H](CN)Cc2cccc(F)c2)cc1-c1c(Cl)cnn1C | ≤ 2.51 | –
Cc1cnn(C)c1-c1cc(C(=O)N[C@H](CN)Cc2cccc(F)c2)oc1Cl | ≤ 2.51 | –
CCn1ncc(Cl)c1-c1cc(C(=O)N[C@H](CN)Cc2ccc(F)c(F)c2)sc1Cl | ≤ 2.51 | –

Reference: ChEMBL document CHEMBL3880416, “Inhibitors of AKT Activity” (2011)
